Reference: PubChem BioAssay AID256 (DTP/NCI, 2004)
“And” between values parts separate entries of the source, which are not always exact repeats. Equal entries are not always repeated. Inconclusive results and toxic doses are left out. How the source made its calls: active means survival T/C of 150% or more; inactive means T/C below 125% in these data.

System: CD2F1 mice, L1210 leukemia ip, survival T/C
Assay: NCI In Vivo Anticancer Drug Screen. Data for tumor model L1210 Leukemia (intraperitoneal) in CD2F1 (CDF1) mice
Conditions: higher = longer survival
Outline: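 Compound-dosed mice with transplantable tumor versus matched vehicle controls; endpoint ratio T/C reported.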

[1] = endpoint: mean survival time, dose: 100.0 mg/kg/injection, schedule: Q04DX003 (ip), vehicle: saline with Tween-80
[2] = endpoint: mean survival time, dose: 200.0 mg/kg/injection, schedule: Q04DX003 (ip), vehicle: saline with Tween-80
[3] = endpoint: mean survival time, dose: 400.0 mg/kg/injection, schedule: Q04DX003 (ip), vehicle: saline with Tween-80
[4] = endpoint: mean survival time, dose: 100.0 mg/kg/injection, schedule: Q04DX002 (ip), vehicle: saline with Tween-80
[5] = endpoint: mean survival time, dose: 200.0 mg/kg/injection, schedule: Q04DX002 (ip), vehicle: saline with Tween-80
[6] = endpoint: mean survival time, dose: 400.0 mg/kg/injection, schedule: Q04DX002 (ip), vehicle: saline with Tween-80
[7] = endpoint: mean survival time, dose: 100.0 mg/kg/injection, schedule: Q01DX009 (ip), vehicle: saline with Tween-80
[8] = endpoint: mean survival time, dose: 200.0 mg/kg/injection, schedule: Q01DX009 (ip), vehicle: saline with Tween-80
[9] = endpoint: mean survival time, dose: 50.0 mg/kg/injection, schedule: Q01DX009 (ip), vehicle: saline with Tween-80
[10] = endpoint: mean survival time, dose: 100.0 mg/kg/injection, schedule: Q01DX001 (ip), vehicle: saline with Tween-80
[11] = endpoint: mean survival time, dose: 200.0 mg/kg/injection, schedule: Q01DX001 (ip), vehicle: saline with Tween-80
[12] = endpoint: mean survival time, dose: 400.0 mg/kg/injection, schedule: Q01DX001 (ip), vehicle: saline with Tween-80

Measured: T/C

CN(C)CCNc1cccc2c1C(=O)c1cccc(NCCN(C)C)c1C2=O
inactive: endpoint: mean survival time, dose: 1.88 mg/kg/injection, schedule: Q01DX009 (ip), vehicle: saline 94 % of control | endpoint: mean survival time, dose: 3.75 mg/kg/injection, schedule: Q01DX009 (ip), vehicle: saline 96 % of control | endpoint: mean survival time, dose: 7.5 mg/kg/injection, schedule: Q01DX009 (ip), vehicle: saline 104 % of control | endpoint: mean survival time, dose: 15.0 mg/kg/injection, schedule: Q01DX009 (ip), vehicle: saline 104 % of control | endpoint: mean survival time, dose: 30.0 mg/kg/injection, schedule: Q01DX009 (ip), vehicle: saline 104 % of control

O=C(c1ccccc1)N(C(=O)c1ccccc1)C1CCCCC1
inactive: [1] 100 % of control | [2] 94 % of control | [3] 93 % of control

CCOc1ccc(C(/C(Cl)=N/O)C(Cl)(Cl)Cl)cc1 (stereo not drawn)
inactive: endpoint: mean survival time, dose: 12.5 mg/kg/injection, schedule: Q01DX009 (ip), vehicle: acetone 94 % of control | endpoint: mean survival time, dose: 25.0 mg/kg/injection, schedule: Q01DX009 (ip), vehicle: acetone 103 % of control | endpoint: mean survival time, dose: 50.0 mg/kg/injection, schedule: Q01DX009 (ip), vehicle: acetone 108 % of control

O=C(O)C1CC(n2cnc3c(=O)[nH]cnc32)CN1 (stereo not drawn)
inactive: endpoint: mean survival time, dose: 50.0 mg/kg/injection, schedule: Q04DX002 (ip), vehicle: saline with Tween-80 96 % of control | [4] 110 % of control | [5] 93 % of control | [6] 93 % of control

CCOC(=O)c1cc(C(=O)OCC)c2ccc(Br)ccc1-2
inactive: endpoint: mean survival time, dose: 100.0 mg/kg/injection, schedule: Q01DX001 (sc), vehicle: olive oil, sesame oil, peanut oil 105 % of control | endpoint: mean survival time, dose: 200.0 mg/kg/injection, schedule: Q01DX001 (sc), vehicle: olive oil, sesame oil, peanut oil 96 % of control | endpoint: mean survival time, dose: 400.0 mg/kg/injection, schedule: Q01DX001 (sc), vehicle: olive oil, sesame oil, peanut oil 93 % of control

COc1cc2c(cc1OC)NC(=O)CC(=O)N2
inactive: [2] 91 % of control | [3] 98 % of control

O=C(O)c1ccccc1C(=O)Nc1ccc(Cl)cc1
inactive: [7] 95 % of control | [1] 94 % of control | [8] 89 % of control | [2] 96 % of control | [3] 86 % of control

[Na+]
inactive: endpoint: median survival time, dose: 25.0 mg/kg/injection, schedule: Q01DX009 (ip), vehicle: water 105 % of control | endpoint: median survival time, dose: 50.0 mg/kg/injection, schedule: Q01DX009 (ip), vehicle: water 102 % of control | endpoint: median survival time, dose: 100.0 mg/kg/injection, schedule: Q01DX009 (ip), vehicle: water 93 % of control | endpoint: median survival time, dose: 200.0 mg/kg/injection, schedule: Q01DX009 (ip), vehicle: water 100 % of control | endpoint: median survival time, dose: 400.0 mg/kg/injection, schedule: Q01DX009 (ip), vehicle: water 105 % of control

CC(C)=CCC/C(C)=C\COC(=N)C(Cl)(Cl)Cl
inactive: [9] 88 % of control | [7] 92 % of control | [8] 92 % of control

CCOC(=O)C(CCP(=O)(OCC)OCC)NC(=O)c1ccc(N(C)Cc2cnc3nc(N)nc(N)c3n2)cc1 (stereo not drawn)
inactive: endpoint: median survival time, dose: 0.38 mg/kg/injection, schedule: Q01DX009 (ip), vehicle: saline 101 % of control | endpoint: median survival time, dose: 0.75 mg/kg/injection, schedule: Q01DX009 (ip), vehicle: saline 102 % of control | endpoint: median survival time, dose: 1.5 mg/kg/injection, schedule: Q01DX009 (ip), vehicle: saline 102 % of control | endpoint: median survival time, dose: 3.0 mg/kg/injection, schedule: Q01DX009 (ip), vehicle: saline 102 % of control | endpoint: median survival time, dose: 6.0 mg/kg/injection, schedule: Q01DX009 (ip), vehicle: saline 101 % of control | endpoint: median survival time, dose: 12.0 mg/kg/injection, schedule: Q01DX009 (ip), vehicle: saline 102 % of control

CC(C)(COCc1ccccc1)COP(N)(=O)N(CCCl)CCCl (stereo not drawn)
inactive: endpoint: mean survival time, dose: 25.0 mg/kg/injection, schedule: Q01DX001 (ip), vehicle: other 102 % of control | endpoint: mean survival time, dose: 50.0 mg/kg/injection, schedule: Q01DX001 (ip), vehicle: other 93 % of control | endpoint: mean survival time, dose: 100.0 mg/kg/injection, schedule: Q01DX001 (ip), vehicle: other 87 % of control | endpoint: mean survival time, dose: 200.0 mg/kg/injection, schedule: Q01DX001 (ip), vehicle: other 96 % of control | endpoint: mean survival time, dose: 400.0 mg/kg/injection, schedule: Q01DX001 (ip), vehicle: other 98 % of control

[C-]#[O+].[C-]#[O+].[C-]#[O+].[C-]#[O+].[C-]#[O+].[C-]#[O+].[W]
inactive: [1] 95 % of control | [2] 97 % of control | [3] 101 % of control

Cn1c(N)c(N)c(=O)n(C)c1=O
inactive: endpoint: mean survival time, dose: 100.0 mg/kg/injection, schedule: Q04DX002 (ip), vehicle: saline 109 % of control | endpoint: mean survival time, dose: 200.0 mg/kg/injection, schedule: Q04DX002 (ip), vehicle: saline 102 % of control | endpoint: mean survival time, dose: 400.0 mg/kg/injection, schedule: Q04DX002 (ip), vehicle: saline 109 % of control

COC(=O)c1cccc(N=NN(C)C)c1
inactive: endpoint: mean survival time, dose: 23.0 mg/kg/injection, schedule: Q01DX009 (ip), vehicle: Klucel (hydroxypropylcellulose) (HPC) 108 % of control | endpoint: mean survival time, dose: 39.0 mg/kg/injection, schedule: Q01DX009 (ip), vehicle: Klucel (hydroxypropylcellulose) (HPC) 98 % of control | endpoint: mean survival time, dose: 65.0 mg/kg/injection, schedule: Q01DX009 (ip), vehicle: Klucel (hydroxypropylcellulose) (HPC) 97 % of control | endpoint: mean survival time, dose: 108.0 mg/kg/injection, schedule: Q01DX009 (ip), vehicle: Klucel (hydroxypropylcellulose) (HPC) 104 % of control

CCCc1cc(=O)n(CCCc2ccccc2)c(=O)n1CCCc1ccccc1
inactive: endpoint: mean survival time, dose: 100.0 mg/kg/injection, schedule: Q01DX001 (ip), vehicle: Klucel (hydroxypropylcellulose) (HPC) 103 % of control | endpoint: mean survival time, dose: 200.0 mg/kg/injection, schedule: Q01DX001 (ip), vehicle: Klucel (hydroxypropylcellulose) (HPC) 97 % of control | endpoint: mean survival time, dose: 400.0 mg/kg/injection, schedule: Q01DX001 (ip), vehicle: Klucel (hydroxypropylcellulose) (HPC) 90 % of control

BrC1(Br)C2COCOCC21 (stereo not drawn)
inactive: [10] 94 % of control | [11] 94 % of control | [12] 94 % of control

CN(C)CCCN=Cc1ccc(O)cc1O.CN(C)CCCN=Cc1ccc(O)cc1O.[Ni+2]
inactive: endpoint: mean survival time, dose: 12.5 mg/kg/injection, schedule: Q01DX009 (ip), vehicle: saline with Tween-80 94 % of control | endpoint: mean survival time, dose: 25.0 mg/kg/injection, schedule: Q01DX009 (ip), vehicle: saline with Tween-80 93 % of control | [9] 94 % of control

NNC(=O)CCc1ccccc1Br
inactive: [9] 92 % of control and 102 % of control | [7] 102 % of control and 103 % of control | [1] 100 % of control | [8] 93 % of control | [2] 97 % of control

N/N=C1/C(=O)c2cccc3cccc1c23
inactive: [1] 100 % of control | [2] 102 % of control | [3] 92 % of control

O=C(Nc1ccc(S(=O)(=O)N2CCCCC2)cc1)OC(c1ccccc1)c1ccccc1
inactive: endpoint: mean survival time, dose: 5.0 mg/kg/injection, schedule: Q01DX001 (ip), vehicle: other 103 % of control | endpoint: mean survival time, dose: 10.0 mg/kg/injection, schedule: Q01DX001 (ip), vehicle: other 100 % of control | endpoint: mean survival time, dose: 20.0 mg/kg/injection, schedule: Q01DX001 (ip), vehicle: other 93 % of control | endpoint: mean survival time, dose: 40.0 mg/kg/injection, schedule: Q01DX001 (ip), vehicle: other 100 % of control | endpoint: mean survival time, dose: 80.0 mg/kg/injection, schedule: Q01DX001 (ip), vehicle: other 102 % of control

CCC1(C)C(=O)c2ccccc2N(C)C1=O (stereo not drawn)
inactive: [10] 95 % of control | [7] 93 % of control | [4] 103 % of control and 106 % of control | [1] 97 % of control | [11] 100 % of control | [8] 93 % of control and 102 % of control | [5] 104 % of control and 110 % of control | [2] 100 % of control | [12] 95 % of control | endpoint: mean survival time, dose: 400.0 mg/kg/injection, schedule: Q01DX009 (ip), vehicle: saline with Tween-80 101 % of control and 102 % of control | [6] 109 % of control and 110 % of control | [3] 100 % of control

Nc1ccc(OCC(O)CN2CCN(c3ccccc3)CC2)cc1 (stereo not drawn)
inactive: [4] 94 % of control | [5] 107 % of control

COc1cc(N2C(N)=NC(N)=NC2(C)C)cc(OC)c1OC
inactive: endpoint: mean survival time, dose: 6.25 mg/kg/injection, schedule: Q04DX003 (ip), vehicle: saline 97 % of control | endpoint: mean survival time, dose: 12.5 mg/kg/injection, schedule: Q04DX003 (ip), vehicle: saline 102 % of control | endpoint: mean survival time, dose: 25.0 mg/kg/injection, schedule: Q04DX003 (ip), vehicle: saline 102 % of control
